Test results taken from EP4417602A1, “SUBSTITUTED PYRAZOLE CARBOXAMIDES, SALTS THEREOF AND THEIR USE AS HERBICIDALLY ACTIVE SUBSTANCES” (Bayer AG, priority 2023, dated 2024).
Values belong to the molecule of their own block, whether it stands above or below them.

Legend:
DIGSA = assay: B. Herbicidal post-emergence action on harmful plants (Tables B); assay type: in vivo, Digitaria sanguinalis
Procedure, shortened: (§1)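 Greenhouse weeds grown in sandy loam were sprayed post-emergence at the one-leaf stage, 2-3 weeks after sowing. Compounds were applied as WP or EC in water with 0.5% additive at 600 L/ha, at 1280 g/ha or below. Visual damage was rated after about 3 weeks versus untreated plants (0-100%).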

ZEAMX = assay: D. Pre-emergence effects on crop plants (Tables D); assay type: in vivo, Zea mays; details: crop plant
Procedure, shortened: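 Seeds sown in sandy loam and covered; WP or EC formulations sprayed onto the soil surface as aqueous suspension/emulsion with 0.5% additive, at 320 g/ha or below. Greenhouse-grown; visual damage scored after ca. 3 weeks against untreated controls (0% = as control, 100% = plants dead).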

SETVI [1] = assay: B. Herbicidal post-emergence action on harmful plants (Tables B); assay type: in vivo, Setaria viridis; details: application rate 1280 g/ha; Table B5
Procedure, shortened: as §1

VERPE = assay: as above; assay type: in vivo, Veronica persica
Procedure, shortened: as §1

ECHCG = assay: E. Herbicidal post-emergence action, weed and crop plants (Tables E); assay type: in vivo, Echinochloa crus-galli; details: application rate 320 g/ha, visual assessment after ca. 3 weeks
Source text: (§2) Seeds of mono- and dicotyledonous weed plants and crop plants were sown, in plastic or organic planting pots, in sandy loam, covered with soil and grown in a greenhouse under controlled growth conditions. 2 to 3 weeks after sowing, the test plants were sprayed in the single-leaf stage. The compounds according to the invention, formulated in form of wettable powders (WP) or as emulsifiable concentrates (EC), were sprayed onto the green plant parts as aqueous suspension or emulsion, with the addition of 0.5% of an additive, at an application rate of 6001 of water/ha (converted). The test plants were placed in the greenhouse for ca. 3 weeks under optimum growth conditions, and then the effect of the preparations was assessed visually in comparison with untreated controls (herbicidal effect in percent (%): 100% effect = plants have died off, 0% effect = as control plants). Tables E1 to E7 below show the effects of selected compounds of the general formula (I) according to table 1 on various harmful plants and an application rate corresponding to 320 g/ha or below obtained by the experimental procedure mentioned above. Table E1: post-emergence activity at 320g/ha against ALOMY in %

LOLRI = assay: as above; assay type: in vivo, Lolium rigidum; details: application rate 320 g/ha, visual assessment after ca. 3 weeks
Source text: as §2

STEME = assay: B. Herbicidal post-emergence action on harmful plants (Tables B); assay type: in vivo, Stellaria media; details: application rate 1280 g/ha; Table B6
Procedure, shortened: as §1

ORYZA = assay: D. Pre-emergence effects on crop plants (Tables D); assay type: in vivo, Oryza sativa; details: crop plant
Source text: Seeds of mono- and dicotyledonous weed plants and crop plants were sown, in plastic or organic planting pots, in sandy loam and covered with soil. The compounds according to the invention, formulated in the form of wettable powders (WP) or as emulsifiable concentrates (EC), were applied to the surface of the covering soil as aqueous suspension or emulsion, with the addition of 0.5% of an additive, at an application rate of 6001 of water/ha (converted).
Following treatment, the pots were placed in a greenhouse and kept under optimum growth conditions for the test plants. The visual grading of the damage to the test plants was carried out after ca. 3 weeks in comparison to untreated controls (herbicidal effect in percent (%): 100% effect = plants have died off, 0% effect = as control plants).
Tables D1 to D5 below show the effects of various compounds of the general formula (I) according to Table 1 on various crop plants and an application rate corresponding to 320 g/ha or below obtained by the experimental procedure mentioned above in Biological Examples, Section C. Table D1a: pre-emergence activity at 320g/ha against ZEAMX in %

AMARE [2] = assay: B. Herbicidal post-emergence action on harmful plants (Tables B); assay type: in vivo, Amaranthus retroflexus; details: application rate 1280 g/ha; Table B8
Procedure, shortened: as §1

ABUTH = assay: as above; assay type: in vivo, Abutilon theophrasti
Procedure, shortened: as §1

AVEFA = assay: C. Herbicidal pre-emergence action, weed and crop plants (Tables C); assay type: in vivo, Avena fatua; details: application rate 320 g/ha; Table C4
Source text: (§3) Seeds of mono- and dicotyledonous weed plants and crop plants were sown, in plastic or organic planting pots, in sandy loam and covered with soil. The compounds according to the invention, formulated in the form of wettable powders (WP) or as emulsifiable concentrates (EC), were applied to the surface of the covering soil as aqueous suspension or emulsion, with the addition of 0.5% of an additive, at an application rate of 6001 of water/ha (converted). Following treatment, the pots were placed in a greenhouse and kept under optimum growth conditions for the test plants. The visual grading of the damage to the test plants was carried out after ca. 3 weeks in comparison to untreated controls (herbicidal effect in percent (%): 100% effect = plants have died off, 0% effect = as control plants). Tables C1 to C12 below show the effects of selected compounds of the general formula (I) according to table 1 on various harmful plants and an application rate corresponding to 320 g/ha or below obtained by the experimental procedure mentioned above. Table C1: pre-emergence activity at 320g/ha against KCHSC in %

AMARE [3] = assay: as above; assay type: in vivo, Amaranthus retroflexus; details: application rate 320 g/ha; Table C3
Source text: as §3

SETVI [4] = assay: E. Herbicidal post-emergence action, weed and crop plants (Tables E); assay type: in vivo, Setaria viridis; details: application rate 320 g/ha, visual assessment after ca. 3 weeks
Source text: as §2

[5] = application rate 1280 g/ha, Table B12a
[6] = application rate 80 g/ha, Table D1b
[7] = application rate 1280 g/ha, Table B11a
[8] = application rate 80 g/ha, Table D3b
[9] = application rate 320 g/ha, Table D3a
[10] = application rate 320 g/ha, treated at the one-leaf stage, rated visually after about 3 weeks vs untreated controls, 100% = the plants have died, 0% = like control plants
[11] = application rate 1280 g/ha, Table B1a

pre-emergence activity against ZEAMX (ZEAMX; [6]): 0%
SMILES: C=C(c1ccccc1F)C1CCCN1C(=O)c1cn(C)nc1COC (racemic) [Example I-023]
post-emergence activity against DIGSA (DIGSA; [5]): 90%

SMILES: COCc1c(C(=O)N2CCCC2Cc2ccccc2Cl)cnn1C (racemic) [Example I-170]
post-emergence activity against SETVI (SETVI [1]): 90% | post-emergence activity against VERPE (VERPE; [7]): 90% | post-emergence activity against ECHCG in % (ECHCG): 80% | post-emergence activity against LOLRI in % (LOLRI): 80%

SMILES: COCc1c(C(=O)N2CCCC2Cc2ccccc2F)cnn1C (single isomer, unassigned) [Example I-157]
post-emergence activity against STEME (STEME): 100%

pre-emergence activity against ORYZA (ORYZA; [8]): 0% | pre-emergence activity against ORYZA (ORYZA; [9]): 0% | pre-emergence activity against ZEAMX (ZEAMX; [6]): 10% | pre-emergence activity against ZEAMX (ZEAMX; application rate 320 g/ha, Table D1a): 20%
SMILES: Cn1cc(C(=O)N2CCCC2Cc2ccc(F)cc2F)c(COc2ccccc2)n1 (racemic) [Example I-008]

pre-emergence activity against ORYZA (ORYZA; [8]): 0% | pre-emergence activity against ORYZA (ORYZA; [9]): 0% | pre-emergence activity against ZEAMX (ZEAMX; [6]): 0%
SMILES: Cn1cc(C(=O)N2CCCC2Cc2ccccc2F)c(COc2ccccc2)n1 (racemic) [Example I-006]
post-emergence activity against DIGSA (DIGSA; [5]): 90% | post-emergence activity against AMARE (AMARE [2]): 90% | post-emergence activity against ABUTH (ABUTH; [10]): 90% | post-emergence activity against ABUTH (ABUTH; [11]): 90%

pre-emergence activity against ZEAMX (ZEAMX; [6]): 20%
SMILES: COCc1nn(C(=O)OC(C)(C)C)cc1C(=O)N1CCCC1Cc1ccccc1F (racemic) [Example I-040]

SMILES: COCc1nn(C)cc1C(=O)N1CCCC1Cc1ccccc1F (racemic) [Example I-002]
pre-emergence activity against AVEFA (AVEFA): 80% | post-emergence activity against ECHCG in % (ECHCG): 80% | post-emergence activity against AMARE (AMARE [2]): 90%

SMILES: COCc1nn(C)cc1C(=O)N1CCCC1Cc1ccccc1F (single isomer, unassigned) [Example I-003]
pre-emergence activity against AMARE (AMARE [3]): 90% | post-emergence activity against SETVI in % (SETVI [4]): 80% | post-emergence activity against VERPE (VERPE; application rate 80 g/ha, Table B11c): 90% | post-emergence activity against VERPE (VERPE; application rate 320 g/ha, Table B11b): 90% | post-emergence activity against VERPE (VERPE; [7]): 90% | pre-emergence activity against AVEFA (AVEFA): 90% | post-emergence activity against DIGSA (DIGSA; application rate 80 g/ha, Table B12c): 100% | post-emergence activity against DIGSA (DIGSA; application rate 320 g/ha, Table B12b): 100% | post-emergence activity against DIGSA (DIGSA; [5]): 100% | post-emergence activity against ECHCG in % (ECHCG): 80% | post-emergence activity against LOLRI in % (LOLRI): 80% | post-emergence activity against ABUTH (ABUTH; [10]): 90% | post-emergence activity against ABUTH (ABUTH; [11]): 90%

pre-emergence activity against ZEAMX (ZEAMX; [6]): 0%
SMILES: COCc1nn2c(c1C(=O)N1CCCC1Cc1ccccc1F)CCC2 (racemic) [Example I-022]

SMILES: COCc1nn(C)cc1C(=O)N1CCCC1C(O)c1ccccc1F (single isomer, unassigned) [Example I-053]
post-emergence activity against SETVI (SETVI [1]): 90% | pre-emergence activity against AMARE (AMARE [3]): 90% | post-emergence activity against SETVI in % (SETVI [4]): 80%

SMILES: CNC(=O)n1cc(C(=O)N2CCCC2Cc2ccccc2F)c(COC)n1 (racemic) [Example I-051]
post-emergence activity against STEME (STEME): 90%
